Measured values published in patent US7576095B2, “Therapeutic agents” (Astrazeneca AB, priority 2005, dated 2009).
pIC50: −log10 of the molar value.

What was measured:
CB1 receptor = target: T1, CB1 receptor (Homo sapiens, UniProt P21554); test: [35S]-GTPγS binding assay, membranes of cells stably transfected with the CB1 gene, inhibition of agonist CP55940 (EC80); assay type: biochemical; conditions: half maximal inhibition of GTPγS binding; EC80 concentration of CP55940
T1 construct: expressed in transfected cells
Description: Compounds of the present invention are active against the receptor product of the CB1 gene. The affinity of the compounds of the invention for central cannabinoid receptors is demonstrable in methods described in Devane et al , Molecular Pharmacology, 1988, 34,605 or those described in WO01/70700 or EP 656354. Alternatively the assay may be performed as follows.
10 μg of membranes prepared from cells stably transfected with the CB1 gene were suspended in 200 μl of 100 mM NaCl, 5 mM MgCl2, 1 mM EDTA, 50 mM HEPES (pH 7.4), 1 mM DTT, 0.1% BSA and 100 μM GDP. To this was added an EC80 concentration of agonist (CP55940), the required concentration of test compound and 0.1 μCi [^35S]-GTPγS. The reaction was allowed to proceed at 30° C. for 45 min. […] Filters were then covered with scintilant and counted for the amount of [^35S]-GTPγS retained by the filter.
Activity is measured in the absence of all ligands (minimum activity) or in the presence of an EC80 concentration of CP55940 (maximum activity). […] At various concentrations of novel ligand, activity is calculated as a percentage of the maximum activity and plotted. The data are fitted using the equation y=A+((B-A)/1+((C/x) UD)) and the IC50 value determined as the concentration required to give half maximal inhibition of GTPγS binding under the conditions used.

[1] = Solubility in dimethyl sulfoxide; assay type: physicochemical
From the text: The compounds of the present invention have improved solubility in organic solvents compared to compounds in the prior art. […] It would be expected that this increase in solubility in organic solvents would lead to improvements in bioavailability and ease of manufacture and formulation.

T1 sequence (P21554 whole entry): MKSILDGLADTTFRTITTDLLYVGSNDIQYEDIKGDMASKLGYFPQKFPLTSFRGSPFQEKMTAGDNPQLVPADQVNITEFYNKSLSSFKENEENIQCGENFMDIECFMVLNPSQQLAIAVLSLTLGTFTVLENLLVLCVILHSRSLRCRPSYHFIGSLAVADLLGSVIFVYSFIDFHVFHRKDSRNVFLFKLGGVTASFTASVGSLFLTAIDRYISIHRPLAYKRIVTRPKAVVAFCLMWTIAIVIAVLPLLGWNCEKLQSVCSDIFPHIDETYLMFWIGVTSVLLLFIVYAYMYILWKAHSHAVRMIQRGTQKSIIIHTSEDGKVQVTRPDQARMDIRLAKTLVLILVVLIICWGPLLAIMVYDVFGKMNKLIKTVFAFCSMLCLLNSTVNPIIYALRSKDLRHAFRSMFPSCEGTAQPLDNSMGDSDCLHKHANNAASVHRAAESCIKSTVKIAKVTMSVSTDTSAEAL

pIC50 (CB1 receptor)	solubility in dimethyl sulfoxide [1]	Compound
9.01	–	Cc1c2c(n(-c3ccccc3Cl)c1-c1ccc(OS(=O)(=O)CCC(F)(F)F)cc1)CCN(N1CCCCC1)C2=O [Example 1, 3,3,3-Trifluoropropane-1-sulfonic acid 4-[1-(2-chlorophenyl)-3-methyl-4-oxo-5-piperidin-1-yl-4,5,6,7-tetrahydro-1H-pyrrolo[3,2-c]pyridine-2-yl]phenyl ester]
–	insoluble	Cc1c2c(n(-c3ccc(Cl)cc3Cl)c1-c1ccc(Cl)cc1)CCN(N1CCCCC1)C2=O [Example 19 of WO03/027114, 2-(4-chlorophenyl)-1-(2,4-dichlorophenyl)-3-methyl-5-(1-piperidinyl)-1,5,6,7-tetrahydro-4H-pyrrolo-[3,2-c]pyridin-4-one]
